Measured values as given in PubChem BioAssay (NCI).
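Cultured in 96-well plates, cells were exposed to test compound for 48 hours across five concentrations. Here, GI50 denotes the concentration required for 50% inhibition of growth. The concentration for full growth arrest is given as TGI.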

Tests used:
Experiment in all cases: growth of human tumour cells (NCI), 48 h
ACHN renal = test system: ACHN renal
HCT-116 colon = test system: HCT-116 colon
DMS 114 small cell lung = test system: DMS 114 small cell lung
OVCAR-3 ovarian = test system: OVCAR-3 ovarian
SN12C renal = test system: SN12C renal
SK-MEL-5 melanoma = test system: SK-MEL-5 melanoma
OVCAR-4 ovarian = test system: OVCAR-4 ovarian
RPMI-8226 leukemia = test system: RPMI-8226 leukemia
IGROV1 ovarian = test system: IGROV1 ovarian
MOLT-4 leukemia = test system: MOLT-4 leukemia

| SMILES | TGI (ACHN renal) [µM] | TGI (HCT-116 colon) [µM] | TGI (DMS 114 small cell lung) [µM] | TGI (OVCAR-3 ovarian) [µM] | TGI (SN12C renal) [µM] | TGI (SK-MEL-5 melanoma) [µM] | TGI (OVCAR-4 ovarian) [µM] | TGI (RPMI-8226 leukemia) [µM] | TGI (IGROV1 ovarian) [µM] | GI50 (ACHN renal) [nM] | GI50 (HCT-116 colon) [nM] | GI50 (OVCAR-3 ovarian) [nM] | GI50 (SN12C renal) [nM] | GI50 (SK-MEL-5 melanoma) [nM] | GI50 (MOLT-4 leukemia) [µM] | TGI (MOLT-4 leukemia) [µM] | GI50 (OVCAR-4 ovarian) [nM] | GI50 (RPMI-8226 leukemia) [µM] | GI50 (IGROV1 ovarian) [nM] |
| --- | --- | --- | --- | --- | --- | --- | --- | --- | --- | --- | --- | --- | --- | --- | --- | --- | --- | --- | --- |
| C=C1C(=O)O[C@H]2[C@H]1[C@H](OC(=O)/C(C)=C\C)CC(=C)[C@@H]1[C@H](O)[C@H]3O[C@@]3(C)[C@@]12O | > 100 | > 100 | > 100 | > 100 | > 100 | > 100 | > 100 | > 100 | > 100 | – | – | – | – | – | – | – | – | – | – |
| COC(=O)CCC(NC(=S)N/N=C(\C)c1nccs1)C(=O)OC (stereo not given) | > 100 | > 100 | 57.5 | > 100 | > 100 | > 100 | > 100 | > 100 | > 100 | – | – | – | – | – | – | – | – | – | – |
| CCCCCCCCCc1cc(=O)c2ccc(OCc3ccccc3)cc2o1 | > 100 | > 100 | > 100 | > 100 | > 100 | > 100 | > 100 | – | > 100 | – | – | – | – | – | – | – | – | – | – |
| COc1ccc2nc3cc([N+](=O)[O-])ccc3c(NCCCCCN(C)C)c2c1 | 7.49 | 1.18 | – | 12.1 | 0.631 | 0.39 | 0.546 | 1.25 | 2.53 | 592 | 45.3 | 1410 | 179 | 159 | 0.105 | 1.04 | 140 | 0.0741 | 370 |
| CNC(=O)OCc1nc(SC2CCCCO2)n(C)c1COC(=O)NC (stereo not given) | – | > 100 | > 100 | > 100 | > 100 | > 100 | > 100 | > 100 | > 100 | – | – | – | – | – | – | > 100 | – | – | – |
| COc1cc(/C=C2\C(=O)N(C(=O)Cc3ccccc3)N=C2C)ccc1O | > 100 | > 100 | > 100 | > 100 | > 100 | > 100 | > 100 | > 100 | – | – | – | – | – | – | – | > 100 | – | – | – |
| O=C1OC(=O)C(c2c[nH]c3ccccc23)=C1c1c[nH]c2ccccc12 | > 25 | > 25 | – | > 25 | > 25 | > 25 | > 25 | > 25 | > 25 | > 25000 | > 25000 | > 25000 | > 25000 | > 25000 | > 25 | > 25 | > 25000 | > 25 | > 25000 |
| CC1SC(c2c(Cl)cccc2Cl)N(NC(=O)c2[nH]c3ccc(F)cc3c2-c2ccccc2)C1=O (stereo not given) | 8.35 | 3.08 | – | 3.45 | 5.86 | 11.9 | 3.4 | > 100 | 7.9 | 2820 | 1710 | 1760 | 2260 | 2720 | 13.2 | 64.7 | 1690 | 5.59 | 2370 |
| N#CC(C(=O)/C(=N/NC(=O)c1ccccc1O)C(C#N)c1ccc(Cl)cc1)c1ccc(Cl)cc1 (stereo not given) | 29.6 | 40.2 | 69.7 | 35.5 | 26.4 | – | 33.9 | 53 | – | – | – | – | – | – | – | – | – | – | – |
